In patent US6653081B2, “Methods for monitoring antiretroviral therapy and guiding therapeutic decision in the treatment of HIV/AIDS” (ViroLogic, Inc., priority 2000, dated 2003):

Experiments:
Assay type in all cases: cell-based, HIV
RTV-010835 = experiment: Phenotypic susceptibility assay, RTV-010835; conditions: patient CCTG-2165, week 15; K103N and M230L present
Text: (§1) The resistance test vectors containing a functional luciferase gene cassette were constructed and host cells were transfected with the resistance test vector DNA. The resistant test vectors contained patient-derived reverse transcriptase and protease sequences that were either susceptible or resistant to the antiretroviral agents, such as nucleoside reverse transcriptase inhibitors, (NRTIs) non-nucleoside reverse transcriptase inhibitors […] protease inhibitors. The resistance test vector viral particles produced by transfecting the resistance test vector DNA into host cells, either in the presence or absence of PRIs, were used to infect target host cells grown either in the absence of NRTIs or NNRTIs, or in the presence of increasing concentrations of the drug. The amount of luciferase activity produced in infected target host cells in the presence of varying concentrations of drug was compared to the amount of luciferase produced in infected target host cells in the absence of drug. […] The IC50 values were determined by plotting percent drug inhibition vs. log10 drug concentration. Stimulation of viral replication was measured as the percent increase in luciferase activity detected when infection occurs in the presence of drug as compared to in the absence of drug.
(§2) Host cells were seeded in 10-cm-diameter dishes and were transfected several days after plating with resistance test vector plasmid DNA and the envelope expression vector. […] HIV capsid protein (p24) levels in the harvested cell culture media were determined by an EIA method as described by the manufacturer (SAIC; Frederick, Md.). […] The inhibitory effect of the drug was determined using the following equation: […]
(§3) where RLUluc [drug] is the Relative Light Unit of luciferase activity in infected cells in the presence of drug, and RLUluc is the Relative Light Unit of luciferase activity in infected cells in the absence of drug. […] The percent luciferase stimulation is the negative of the % inhibition calculated using the formula above. […]

RTV-007130 = experiment: Phenotypic susceptibility assay, RTV-007130; conditions: patient 007130; for decrease in susceptibility: 245 with multiple other mutations
Text: (§4) The resistance test vectors containing a functional luciferase gene cassette were constructed and host cells were transfected with the resistance test vector DNA. The resistant test vectors contained patient-derived reverse transcriptase and protease sequences that were either susceptible or resistant to the antiretroviral agents, such as nucleoside reverse transcriptase inhibitors, (NRTIs) non-nucleoside reverse transcriptase inhibitors […] protease inhibitors. The resistance test vector viral particles produced by transfecting the resistance test vector DNA into host cells, either in the presence or absence of PRIs, were used to infect target host cells grown either in the absence of NRTIs or NNRTIs, or in the presence of increasing concentrations of the drug. The amount of luciferase activity produced in infected target host cells in the presence of varying concentrations of drug was compared to the amount of luciferase produced in infected target host cells in the absence of drug. “Drug resistance” was measured as the amount of drug required to inhibit by 50% the luciferase activity detected in the absence of drug (inhibitory concentration 50%, IC50). The IC50 values were determined by plotting percent drug inhibition vs. log10 drug concentration. Stimulation of viral replication was measured as the percent increase in luciferase activity detected when infection occurs in the presence of drug as compared to in the absence of drug.
(§5) Host cells were seeded in 10-cm-diameter dishes and were transfected several days after plating with resistance test vector plasmid DNA and the envelope expression vector. Transfections were performed using a calcium-phosphate precipitation procedure. The cell culture media containing the DNA precipitate was replaced with fresh medium, from one to 24 hours, after transfection. Cell culture media containing resistance test vector viral particles was harvested one to four days after transfection and was passed through a […] filter before being used to infect target host cells, or being stored at −80° C. HIV capsid protein (p24) levels in the harvested cell culture media were determined by an EIA method as described by the manufacturer (SAIC; Frederick, Md.). Before infection, target cells (293 and 293/T) were plated in cell culture media. Control infections were performed using cell culture media from mock transfections (no DNA) or transfections containing the resistance test vector plasmid DNA without the envelope expression plasmid. One to three or more days after infection, the media was removed and cell lysis buffer (Promega) was added to each well. Cell lysates were assayed for luciferase activity (FIG. 3). The inhibitory effect of the drug was determined using the following equation:
(§6) % luciferase inhibition=1−(RLUluc[drug]÷RLUluc)×100
(§7) where RLUluc [drug] is the Relative Light Unit of luciferase activity in infected cells in the presence of drug, and RLUluc is the Relative Light Unit of luciferase activity in infected cells in the absence of drug. IC50values were obtained from the sigmoidal curves that were generated from the data by plotting the percent inhibition of luciferase activity vs. the log10 drug concentration. The percent luciferase stimulation is the negative of the % inhibition calculated using the formula above.
(§8) A resistance test vector was constructed as described in Example 1 from a virus sample obtained from patient 007130. The prior and current treatment regimens are unknown. Isolation of viral RNA and RT/PCR was used to generate a patient derived segment (PDS) that comprised viral sequences coding for all of PR and aa 1-313 of RT. The PDS were inserted into an indicator gene viral vector to generate a resistance test vector designated RTV-007130. RTV-007130 was then tested in a phenotypic assay to determine accurately and quantitatively the level of susceptibility to a panel of anti-retroviral drugs. […]

RTV-012123 = experiment: Phenotypic susceptibility assay, RTV-012123; conditions: patient 012123; for decrease in susceptibility: 245 with multiple other mutations
Text: as §4, §5, §6, §7
as §8, with “012123.” for “007130.”, “RTV-012123. RTV-012123” for “RTV-007130. RTV-007130”

RTV-013522/270I = experiment: Phenotypic susceptibility assay, RTV-013522/270I; conditions: RTV-013522 with I270S reverted
Text: as §4, §5, §6, §7
A resistance test vector containing all of the mutations present in […] except for the I270S (RTV-013522/270I) was constructed and tested using the phenotypic assay described earlier. The results were compared to those determined using the parent RTV-013522. We determined the pattern of phenotypic susceptibility to the NNRTIs, delavirdine, nevirapine and efavirenz, in the reverted vector RTV-013522/270I. […] In this patient sample the correlation of drug-dependent stimulation of viral replication with the mutation at I270S is very striking. […]

RTV-1033-3/227F = experiment: Phenotypic susceptibility assay, RTV-1033-3/227F; conditions: RTV-1033-3 with F227L reverted
Text: as §4, §5, §6, §7
A resistance test vector containing all of the mutations present in RTV-1033-3 except for F227L (RTV-1033-3/227F) was constructed and tested using the phenotypic assay described earlier. The results were compared to those determined using the parent RTV-1033-3. We determined the pattern of phenotypic susceptibility to the NNRTIs, delavirdine, nevirapine and efavirenz, in the reverted vector, RTV-1033-3/227F.

RTV-309 = experiment: Phenotypic susceptibility assay, RTV-309; conditions: patient 1033 sample before any NNRTI
Text: as §1, §2, §3

Row | SMILES | decrease in susceptibility (RTV-010835) | drug-dependent stimulation of viral replication (RTV-007130) | decrease in susceptibility (RTV-007130) | drug-dependent stimulation of viral replication (RTV-012123) | decrease in susceptibility (RTV-012123) | drug-dependent stimulation of viral replication (RTV-013522/270I) | reductions in susceptibility compared to wild type control RTV (RTV-013522/270I) | drug-dependent stimulation of viral replication (RTV-1033-3/227F) | reductions in susceptibility compared to wild type control RTV (RTV-1033-3/227F) | reduction in susceptibility (RTV-309)
1 | Cc1ccnc2c1NC(=O)c1cccnc1N2C1CC1 [nevirapine] | > 600 fold | ~50% | > 600 fold | ~20% | > 600 fold | no longer exhibiting negative inhibition | 14 fold | ~120% | > 600 fold | 3 fold
2 | CC(C)Nc1cccnc1N1CCN(C(=O)c2cc3cc(NS(C)(=O)=O)ccc3[nH]2)CC1 [delavirdine] | > 250 fold | ~30% | > 250 fold | ~80% | > 250 fold | no longer exhibiting negative inhibition | 40 fold | ~100% | 72 fold | wild type pattern of susceptibility
3 | O=C1Nc2ccc(Cl)cc2[C@@](C#CC2CC2)(C(F)(F)F)O1 [efavirenz] | 270 fold | ~40% | > 450 fold | ~70% | > 450 fold | no longer exhibiting negative inhibition | 8 fold | ~100% | 18 fold | wild type pattern of susceptibility
